Measurements taken from patent US11945765B1, “4,4′-naphthalene-1,5-diylbis(diazene-2,1-diyl)bis(2-methylphenol) as an antioxidant compound” (KING FAISAL UNIVERSITY, priority 2023, dated 2024).

Assay: DPPH radical scavenging antioxidant test
Conditions: 517 nm; for Inhibition (radical scavenging inhibition): DPPH (0.75 mM), compound 3 μM in ethanol, 30 minutes in the dark
Procedure: The antioxidant properties of the 4,4′-naphthalene-1,5-diylbis(diazene-2,1-diyl)bis(2-methylphenol) compound were studied by adding 0.2 mL DPPH (0.75 mM)) to 4,4′-naphthalene-1,5-diylbis(diazene-2,1-diyl)bis(2-methylphenol) (III) (3 μM) in ethanol. After 30 minutes of incubation in the dark, the absorbance was read against a blank at 517 nm. Ascorbic acid (vitamin C) was used as standard antioxidants (positive control). A blank sample was prepared by 0.2 ml of DPPH in 3 mL ethanol. A negative control sample was run using ethanol instead of the sample. The radical scavenging inhibition was calculated using the following equation: […]

SMILES	Inhibition (radical scavenging inhibition) [%]	antioxidant potential compared to vitamin C (in words) (DPPH in vitro test, vitamin C as positive control)
Cc1cc(/N=N\c2cccc3c(/N=N/c4ccc(O)c(C)c4)cccc23)ccc1O [Product III, 4,4′-naphthalene-1,5-diylbis(diazene-2,1-diyl)bis(2-methylphenol)]	52	high potential as an antioxidant
O=C1O[C@H]([C@@H](O)CO)C(O)=C1O [vit c, Ascorbic acid, reference compound]	74	–
